# pEC50: −log10 of the molar value. Where two headings read alike, the source gives them in different places.
# Target: T1, human-mouse chimeric GPR119 (Homo sapiens, UniProt Q8TDV5, A235T/C313R/C323Y/E253K/F304I/F307L/G211A/G245S/H255C/K284R/L224V/L258Q/L288Q/L301F/P218V/P318T/Q252H/R262K/S214P/S219N/S228A/S309P/S322A/T217S/T239S/V227I/V300F)
# T1 construct: the first 198 amino acids of human GPR119; the C-terminal 137 amino acids of the mouse receptor; expressed in transfected cells
# T1 sequence (Q8TDV5 with tags, fused parts or gaps G211A/S214P/T217S/P218V/S219N/L224V/V227I/S228A/A235T/T239S/G245S/Q252H/E253K/H255C/L258Q/R262K/K284R/L288Q/V300F/L301F/F304I/F307L/S309P/C313R/P318T/S322A/C323Y): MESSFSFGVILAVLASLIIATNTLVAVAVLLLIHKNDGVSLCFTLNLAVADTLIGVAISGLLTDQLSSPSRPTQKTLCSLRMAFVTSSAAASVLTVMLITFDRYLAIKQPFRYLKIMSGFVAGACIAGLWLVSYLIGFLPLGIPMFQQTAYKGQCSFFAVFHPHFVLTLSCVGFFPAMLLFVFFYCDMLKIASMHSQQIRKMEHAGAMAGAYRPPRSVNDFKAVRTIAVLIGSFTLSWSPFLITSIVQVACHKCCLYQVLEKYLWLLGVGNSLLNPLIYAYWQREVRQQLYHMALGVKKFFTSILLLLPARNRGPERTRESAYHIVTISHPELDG
# Assay: Tet-inducible cAMP assay
# Assay type: cell-based
# Protocol: The in vitro modulation of recombinant human GPR119 was determined as follows.
# A human-mouse chimeric GPR119 expression construct encoding 3 copies of the FLAG epitope tag, the first 198 amino acids of human GPR119 and the C-terminal 137 amino acids of the mouse receptor was cloned into a tetracycline inducible vector pcDNA5/FRT/TO (Invitrogen #V6520-20), which includes a hygromycin-resistance marker. Tightly controlled receptor expression was achieved by stable integration of this construct into the genome of a specific host cell line, Flp-In-T-Rex-HEK293, expressing the tetracycline repressor (Invitrogen). Once a stable hygromycin-resistant cell line was generated, the cells were maintained at 37° C. in a humidified 5% CO2 atmosphere in culture medium consisting of Dulbecco's modified Eagle's medium (DMEM; Invitrogen #11960) supplemented with 2 mM L-glutamine, 10% fetal bovine serum, 200 μg/ml hygromycin B, and 15 μg/ml blasticidin.
# Forty-eight hours prior to the cAMP accumulation assay, cells stably expressing the chimeric human/mouse GPR119 construct were seeded at a density of 4×10^3 cells/well in 384 well poly-D-lysine coated solid white plates (BD #35-6661) and grown at 37° C. in a humidified 5% CO2 atmosphere in culture medium supplemented with 1 μg/ml tetracycline to induce expression of the receptor. On the day of the assay, medium was removed and cells were incubated for 50 min. at 37° C. in a humidified 5% CO2 atmosphere in 20 μl/well of assay buffer (phosphate-buffered saline with Ca^2+ and Mg^2+, 12 mM glucose, 0.1 mM isobutyl-methyl-xanthine, 0.1% fatty-acid free bovine serum albumin) with the desired concentration of compound added from a concentrated stock dissolved in dimethyl sulfoxide (DMSO) to give a final concentration of 1% DMSO in the assay. cAMP accumulation was measured using the CisBio homogeneous time resolved fluorescence (HTRF) assay kit (#62AM2PEC) following the manufacturer's protocol. Briefly, 10 μl each of the cAMP-HTRF fluorescence detection reagents were added to each well, and the samples were incubated for 40 min. at room temperature. Fluorescence was excited at 320 nm and measured at 665 and 620 nm using the Envision instrument (Perkin Elmer), the fluorescence ratio of 665/620 was calculated and converted to nanomolar concentrations of cAMP in each well by interpolation from a cAMP standard curve. The concentration-response curves and EC50 values were calculated with a four parameter logistic curve fit equation utilizing Excel/XLfit software (Microsoft and IDBS). The EC50 value was calculated as the concentration of agonist which increased the cAMP concentration to a value halfway between the baseline and the maximum.
# Compounds of the present invention were tested in the Tet-inducible cAMP assay described immediately above and the results shown in Table 2 below were obtained.
# [1] = cAMP accumulation (HTRF), Flp-In-T-Rex-HEK293 cells expressing chimeric human/mouse GPR119, 50 min incubation, read-out: GPR119 EC50
Compound,pEC50 [1],pEC50
CCCc1cnc(N2CCC(Cc3nc4ccc(C5CCN(S(=O)(=O)CCC)CC5)cc4o3)CC2)nc1 [Example 147],7.31,
CCCc1cnc(N2C[C@@H]3[C@@H](COc4nc5ccc(-c6ccc(S(C)(=O)=O)cc6)cc5s4)[C@@H]3C2)nc1 [Example 266],5.97,
CCCCOC(=O)N1CC=C(c2ccc3nc(OC4CCN(c5ncc(CCC)cn5)CC4)sc3c2)CC1 [Example 81],6.85,
CCCc1cnc(N2CCC(Oc3nc4ccc(C5=CCN(C(=O)c6csnn6)CC5)cc4s3)CC2)nc1 [Example 73],6.10,
Cc1cc(C)nc(N2CCC(Oc3nc4ccc(-c5ccc(S(C)(=O)=O)cc5)cc4s3)CC2)n1 [Example 296],7.34,
CCCc1cnc(N2CCC(Oc3nc4ccc(C5=CCN(C(=O)CC(C)C)CC5)cc4s3)CC2)nc1 [Example 63],6.53,
CCCc1cnc(N2CC[C@@H](Oc3nc4ccc(C5=CCN(S(C)(=O)=O)CC5)cc4s3)C2)nc1 [Example 84],6.02,
CCCc1cnc(N2CCC(Oc3nc4ccc(C5=CCN(S(=O)(=O)CCCCCCP(=O)(OC)OC)CC5)cc4s3)CC2)nc1 [Example 177],,8.01
CCCc1cnc(N2CCC(Nc3nc4ccc(C5=CCN(S(C)(=O)=O)CC5)cc4s3)CC2)nc1 [Example 54],6.35,
CCCc1cnc(N2CCN(c3nc4ccc(C5=CCN(S(=O)(=O)CC(C)C)CC5)cc4s3)CC2)nc1 [Example 133],6.77,
CCCNC(=O)N1CC=C(c2ccc3nc(OC4CCN(c5ncc(CCC)cn5)CC4)sc3c2)CC1 [Example 194],6.42,
CCCc1cnc(N2CCC(Nc3nc4ccc(C5=CCN(S(=O)(=O)CCC)CC5)cc4s3)CC2)nc1 [Example 53],6.55,
CCCS(=O)(=O)N1CC=C(c2ccc3nc(OC4CCN(S(C)(=O)=O)CC4)sc3c2)CC1 [Example 111],6.64,
CC(C)OC(=O)N1CCC(Oc2nc3ccc(C4=CCN(C(=O)OC(C)(C)C)CC4)cc3s2)CC1 [Example 301],6.46,
CCCc1cnc(N2CCC(Cc3nc4ccc(N5CCN(S(=O)(=O)CCC(=O)OC)CC5)cc4o3)CC2)nc1 [Example 144],6.17,
CCCc1cnc(N2CCC(Oc3nc4ccc(C5=CCN(S(=O)(=O)CCN6CCCC6)CC5)cc4s3)CC2)nc1 [Example 134],7.25,
CCCc1cnc(N2CCC(Oc3nc4ccc(C5=CCN(c6nc(C)cs6)CC5)cc4s3)CC2)nc1 [Example 60],6.12,
CC(C)(O)CCS(=O)(=O)N1CC=C(c2ccc3nc(OC4CCN(S(=O)(=O)CC(F)(F)F)CC4)sc3c2)CC1 [Example 205],6.77,
"CCCc1cnc(N2CCC(Oc3nc4ccc(N5CCC(C(=O)N6CCCC6)CC5)cc4s3)CC2)nc1 [Example 45, (1-(2-(1-(5-Propylpyrimidin-2-yl)piperidin-4-yloxy)benzo[d]thiazol-6-yl)piperidin-4-yl)(pyrrolidin-1-yl)methanone]",6.33,
CCCc1cnc(N2CCC(Oc3nc4ccc(C5=CCN(S(=O)(=O)c6cccc(C(=O)O)c6)CC5)cc4s3)CC2)nc1 [Example 79],6.15,

# More lines, in order of rising pEC50 [1], values ahead:
pEC50 [1],Compound,pEC50
7.43,CCCS(=O)(=O)N1CC=C(c2ccc3nc(OC4CCN(C(=O)c5csnn5)CC4)sc3c2)CC1 [Example 109],
7.47,"CCCc1cnc(N2CCC(Oc3nc4ccc(C5=CCN(S(=O)(=O)CCN6CC(O)C6)CC5)cc4s3)CC2)nc1 [Example 7, 1-(2-(4-(2-(1-(5-Propylpyrimidin-2-yl)piperidin-4-yloxy)benzo[d]thiazol-6-yl)-5,6-dihydropyridin-1(2H)-ylsulfonyl)ethyl)azetidin-3-ol]",
7.54,CCCS(=O)(=O)N1CC=C(c2ccc3nc(OCC4[C@H]5CN(Cc6ccccc6)C[C@@H]45)sc3c2)CC1 (some centres unmarked) [Example 127],
7.55,CCCc1cnc(N2CC[C@H](Oc3nc4ccc(C5=CCN(S(=O)(=O)CCC)CC5)cc4s3)C2)nc1 [Example 115],
7.60,"CCCc1cnc(N2CCC(Oc3nc4ccc(C5=CCN(S(=O)(=O)CCC(C)(C)OC(=O)CCC(=O)O)CC5)cc4s3)CC2)nc1 [Example 39, 4-(2-methyl-4-(4-(2-(1-(5-Propylpyrimidin-2-yl)piperidin-4-yloxy)benzo[d]thiazol-6-yl)-5,6-dihydropyridin-1(2H)-ylsulfonyl)butan-2-yloxy)-4-oxobutanoic acid]",
7.66,CCCc1cnc(N2CC[C@H](Oc3nc4ccc(C5=CCN(S(C)(=O)=O)CC5)cc4s3)C2)nc1 [Example 116],
7.67,CCCS(=O)(=O)N1CC=C(c2ccc3nc(OC4CCN(c5nnc(C)s5)CC4)sc3c2)CC1 [Example 107],
7.69,Cc1nnc(N2CCC(Oc3nc4ccc(-c5ccc(S(C)(=O)=O)cc5)cc4s3)CC2)s1 [Example 294],
7.86,O=S(=O)(CCCO)N1CCN(c2ccc3nc(OC4CCN(c5ncc(F)cn5)CC4)sc3c2)CC1 [Example 221],
7.95,"CCCc1cnc(N2CCC(Oc3nc4ccc(C5=CCN(S(=O)(=O)CCCO)CC5)cc4s3)CC2)nc1 [Example 3, 3-(4-(2-(1-(5-Propylpyrimidin-2-yl)piperidin-4-yloxy)benzo[d]thiazol-6-yl)-5,6-dihydropyridin-1(2H)-ylsulfonyl)propan-1-ol]",
8.01,"CCCc1cnc(N2CCC(Oc3nc4ccc(C5=CCN(S(=O)(=O)CCCCC[N+](CC)(CC)CC)CC5)cc4s3)CC2)nc1 [Example 32, N,N,N-triethyl-5-(4-(2-(1-(5-propylpyrimidin-2-yl)piperidin-4-yloxy)benzo[d]thiazol-6-yl)-5,6-dihydropyridin-1(2H)-ylsulfonyl)pentan-1-aminium bromide]",
8.02,CCCc1cnc(N2CCC(Cc3nc4ccc(C5=CCN(S(=O)(=O)CCC(C)(C)O)CC5)cc4o3)CC2)nc1 [Example 141],
8.08,CC(C)(O)CCS(=O)(=O)N1CCN(c2ccc3nc(OC4CCN(c5ncc(F)cn5)CC4)sc3c2)CC1 [Example 216],
8.12,"CN(C)S(=O)(=O)N1CC=C(c2ccc3nc(OC4CCN(c5ncc(F)cn5)CC4)sc3c2)CC1 [Example 49, 4-(2-((1-(5-Fluoropyrimidin-2-yl)piperidin-4-yl)oxy)benzo[d]thiazol-6-yl)-N,N-dimethyl-5,6-dihydropyridine-1(2H)-sulfonamide]",
8.14,"CC(C)c1noc(N2CCC(Oc3nc4ccc(C5=CCN(S(=O)(=O)CCC(C)(C)O)CC5)cc4s3)CC2)n1 [Example 44, 4-(4-(2-(1-(3-Isopropyl-1,2,4-oxadiazol-5-yl)piperidin-4-yloxy)benzo[d]thiazol-6-yl)-5,6-dihydropyridin-1(2H)-ylsulfonyl)-2-methylbutan-2-ol]",
8.36,CCCc1cnc(N2CCC(Oc3nc4ccc(C5=CCN(S(=O)(=O)CCCC(C)(C)O)CC5)cc4s3)CC2)nc1 [Example 114],
8.41,CC(C)(O)CCS(=O)(=O)N1CCC(c2ccc3nc(OC4CCN(c5ncc(Cl)cn5)CC4)sc3c2)CC1 [Example 246],
8.52,CC(C)(O)CCS(=O)(=O)N1CC=C(c2ccc3nc(OC4CCN(c5nc6ccccc6s5)CC4)sc3c2)CC1 [Example 168],
8.64,"CCCc1cnc(N2CCC(Oc3nc4ccc(C5=CCN(S(=O)(=O)C[C@@H](C)CO)CC5)cc4s3)CC2)nc1 (single isomer, unassigned) [Example 19]",
8.64,CCCc1cnc(N2CCC(Oc3nc4ccc(C5=CCN(S(=O)(=O)CCCC(=O)N(CC)CC)CC5)cc4s3)CC2)nc1 [Example 231],
9.40,COc1cnc(N2CCC(Oc3nc4ccc(C5=CCN(S(=O)(=O)CCCCO)CC5)cc4s3)CC2)nc1 [Example 241],

# From patent publication US8940716B2, “Bicyclic heteroaryl compounds as GPR119 modulators” (Bristol-Myers Squibb Company, priority 2010, dated 2015)
